{
  "source": "paper PMC11728001",
  "about": "“Design, Synthesis, and Biological Evaluation of Novel Urea-Containing Carnosic Acid Derivatives with Anticancer Activity” (International Journal of Molecular Sciences, 2024)",
  "type_in_all_cases": "cell-based",
  "key": {"SW480 cells [1]": {"system": "SW480 cells", "test": "MTT cell viability assay, SW480", "settings": "Homo sapiens, 72 h incubation, mean ± SD", "method": "(§1) The effect of the compounds on cell viability was evaluated using the MTT assay. HCT116 (3000 cells/well), SW620 (8000 cells/well), SW480 (6000 cells/well), Caco-2 (4000 cells/well), A375 (1500 cells/well), MiaPaca-2 (2000 cells/well), and BJ (10,000 cells/well) cells were seeded in 96-well plates. After 24 h, the growth medium was replaced with a fresh medium containing the desired concentration of the compound or DMSO (control). After 72 h of incubation, the supernatant was removed and 100 µL of a mixture (1:1) of filtered MTT solution (1 mg/mL in PBS) with FBS-free medium was added to each well. After 1 h of incubation at 37 °C, the mixture was removed and 100 µL of DMSO was added to each well to dissolve the formed formazan crystals. Absorbance was immediately measured at 570 nm using a Benchmark Plus Microplate Reader (Bio-Rad Laboratories, Hercules, CA, USA). IC50 values were calculated using GraphPad Prism 9 software (GraphPad Software, San Diego, CA, USA) and expressed as the mean ± standard deviation (SD) of at least three independent experiments."}, "[2]": {"system": "MiaPaca-2 pancreatic cancer cells", "test": "MTT cell viability assay, MiaPaca-2", "settings": "Homo sapiens, MIA PaCa-2, 72 h incubation, mean ± SD", "method": "as §1"}, "[3]": {"system": "BJ non-tumoral fibroblast cell line", "test": "MTT cell viability assay, BJ", "settings": "72 h incubation", "method": "as §1"}, "SW480 cells [4]": {"system": "SW480 cells", "test": "Cell proliferation assay and cell doubling time", "settings": "SW480 cells treated at IC50 concentration; control 42 h", "method": "SW480 cells were seeded at a concentration of 1.68 × 10^5 cells per well in 6-well plates and incubated at 37 °C. […] Prior to treatment initiation (0 h), cells were trypsinized, washed with DPBS, and collected by centrifugation. The collected cells were resuspended in DPBS containing trypan blue and examined using an Invitrogen Countess 3 Automated Cell Counter (Thermo Fisher Scientific, Waltham, MA, USA) to determine the cell number and viability. This procedure was replicated at various treatment time points (24, 48, and 72 h) to generate a cell proliferation curve depicting the changes over time. Cell doubling time was calculated by dividing the natural logarithm of 2 by the growth rate."}, "SW480 cells [5]": {"system": "SW480 cells", "test": "Cell cycle assay (PI, FACS)", "settings": "SW480, IC50 concentration", "method": "SW480 cells were seeded in 6-well plates and treated as described for the apoptosis assay. After centrifugation, the cells were resuspended in 500 µL DPBS and added dropwise to 4.5 mL 70% (v/v) cold ethanol. The cell suspension was kept at −20 °C for a minimum of 4 h. The cell suspension was then centrifuged, washed with cold DPBS, resuspended in 360 µL DPBS containing 10 µL RNase (10 mg/mL), and incubated for 1 h, at 37 °C, with agitation. Before FACS analysis, 20 µL PI solution (1 mg/mL) was added to the samples. FACS analysis was performed using a Gallios flow cytometer (Beckman Coulter, Brea, CA, USA) at 488 nm. Data were acquired from 1 × 10^4 cells and subsequently analyzed using the multicycle software provided by Phoenix Flow Systems (San Diego, CA, USA)."}, "CDK4": {"system": "CDK4", "test": "Western blot, CDK4 expression in SW480 cells", "settings": "SW480, IC50 concentration, 24 and 72 h", "method": "(§2) SW480 cells (1.68 × 10^5 cells/well) were seeded in 6-well plates and incubated at 37 °C for 24 h. […] At the end of the treatment period, cells were washed twice with ice-cold DPBS and incubated for 30 min. at 4 °C with lysis buffer containing 20 mM Tris-HCl (pH 7.5), 1 mM DTT, 0.2% Triton X-100, 1 mM Na-EDTA, 0.5 mM sodium deoxycholate, 1% proteases inhibitor cocktail, and 0.5% phosphatases inhibitor cocktail. The cells were scraped, sonicated, and centrifuged at 12,000× g for 20 min. at 4 °C. The supernatants were recovered, and the protein concentration was quantified using Pierce^TM BCA protein assay reagents A and B and Pierce^TM bovine serum albumin standard ampules (2 mg/mL).\n(§3) Membranes were blocked with 5% skim milk in PBS-Tween-20 (0.1%) for 1 h at room temperature, following its incubation with the specific primary antibodies overnight at 4 °C (CDK4, CDK6, and SOD2 (MnSOD)). Exceptionally, the primary antibody against actin was only incubated for 30 min. at room temperature. The membranes were then washed with PBS-Tween-20 (0.1%) and incubated for 40 min. with an anti-mouse secondary antibody or for 1 h with an anti-rabbit secondary antibody. After incubation, the membranes were washed again with PBS-Tween-20 (0.1%) and treated with the Immobilon Western Chemiluminescent HRP Substrate Kit. […]"}, "CDK6": {"system": "CDK6", "test": "Western blot, CDK6 expression in SW480 cells", "settings": "SW480, IC50 concentration, 24, 48 and 72 h", "method": "as §2, §3"}, "[6]": {"system": "intracellular ROS in SW480 cells", "test": "ROS determination assay (H2DCFDA, flow cytometry)", "settings": "SW480, IC50 concentration", "method": "Intracellular ROS levels were assessed by flow cytometry using H2DCFDA probe. SW480 cells were cultured in 6-well plates and treated according to the procedure described for the apoptosis assay. After incubation for 24, 48, and 72 h, adherent cells were collected by centrifugation after trypsinization and washed with DPBS. The cells were then incubated with 1 mL HBSS containing 2 mM L-glutamine and 50 µM H2DCFDA probe at 37 °C for 45 min. in a cell culture incubator. Next, the cellular suspension was washed with 2 mL of DPBS and the cells were collected by centrifugation. Finally, the cells were gently resuspended in 350 µL DPBS containing 20 µg/mL PI solution (1 mg/mL). The intracellular internalized probe reacts with ROS and undergoes transformation into 2′,7′-dichlorofluorescein (DCF). DCF fluorescence data were collected from 1 × 10^4 PI-negative cells by using a Gallios flow cytometer (Beckman Coulter, Brea, CA, USA) at 520 nm."}},
  "data": [
    {"compound": "CC(=O)Oc1c(C(C)C)cc2c(c1OC(C)=O)[C@@]1(NC(=O)NCCc3cccc(Cl)c3)CCCC(C)(C)[C@@H]1CC2", "note": "[Compound 14, (4bR,8aS)-4b-(3-(3-chlorophenethyl)ureido)-2-isopropyl-8,8-dimethyl-4b,5,6,7,8,8a,9,10-octahydrophenanthrene-3,4-diyl diacetate]", "values": [
      {"measurement": "IC50", "setting": "SW480 cells [1]", "value": "6.1 ± 0.3", "unit": "µM"},
      {"measurement": "IC50", "setting": "[2]", "value": "9 ± 0.8", "unit": "µM"},
      {"measurement": "IC50", "setting": "[3]", "value": "> 25", "unit": "µM"},
      {"measurement": "cell doubling time", "setting": "SW480 cells [4]", "value": 70, "unit": "h"},
      {"measurement": "percentage of cells in the G0/G1 phase", "setting": "SW480 cells [5]; 24 h, control 50.3%", "value": 71, "unit": "%"},
      {"measurement": "percentage of cells in the G0/G1 phase", "setting": "SW480 cells [5]; at the three time points (24, 48, 72 h)", "value": "higher than 66.6%"},
      {"measurement": "CDK4 expression versus untreated cells", "setting": "CDK4", "value": "downregulation"},
      {"measurement": "CDK6 expression versus untreated cells", "setting": "CDK6", "value": "downregulation"},
      {"measurement": "percentage of intracellular ROS compared with control", "setting": "[6]; 24 h", "value": 56, "unit": "%"},
      {"measurement": "percentage of intracellular ROS compared with control", "setting": "[6]; 48 h", "value": 71, "unit": "%"},
      {"measurement": "change in ROS levels", "setting": "[6]; 72 h", "value": "no significant changes"}
    ]}
  ]
}
